Reference: ChEMBL document CHEMBL1156467, “Inhibition of GLI-mediated transcription and tumor cell growth by small-molecule antagonists” (Proc Natl Acad Sci U S A, 2007)
Calls of active or inactive are those of the source. The calls are words filed in the database; no cut-off is given here.

How the values were obtained:
[1] = tested on: HepG2; experiment: Inhibition of Gli1 dependent growth of human HepG2 cells at 5 uM; type: functional; design: scale not given: the % may be the effect or the level left
[2] = tested on: HEK293; experiment: Induction of apoptosis in HEK293 cells assessed as caspase3/7 cleavage by luminometric assay; type: functional, cell-based; conditions: Homo sapiens
[3] = tested on: NIH3T3; experiment: Cytotoxicity against mouse NIH3T3 cells at 10 uM after 48 hrs assessed as reduction in cell viability by MTS assay; type: functional, cell-based
[4] = target: T1, Zinc finger protein GLI1 (Mus musculus) (UniProt P47806); experiment: Inhibition of GLI1 induced hedgehog signaling in mouse NIH3T3 cells; type: cell-based
T1 sequence (whole entry): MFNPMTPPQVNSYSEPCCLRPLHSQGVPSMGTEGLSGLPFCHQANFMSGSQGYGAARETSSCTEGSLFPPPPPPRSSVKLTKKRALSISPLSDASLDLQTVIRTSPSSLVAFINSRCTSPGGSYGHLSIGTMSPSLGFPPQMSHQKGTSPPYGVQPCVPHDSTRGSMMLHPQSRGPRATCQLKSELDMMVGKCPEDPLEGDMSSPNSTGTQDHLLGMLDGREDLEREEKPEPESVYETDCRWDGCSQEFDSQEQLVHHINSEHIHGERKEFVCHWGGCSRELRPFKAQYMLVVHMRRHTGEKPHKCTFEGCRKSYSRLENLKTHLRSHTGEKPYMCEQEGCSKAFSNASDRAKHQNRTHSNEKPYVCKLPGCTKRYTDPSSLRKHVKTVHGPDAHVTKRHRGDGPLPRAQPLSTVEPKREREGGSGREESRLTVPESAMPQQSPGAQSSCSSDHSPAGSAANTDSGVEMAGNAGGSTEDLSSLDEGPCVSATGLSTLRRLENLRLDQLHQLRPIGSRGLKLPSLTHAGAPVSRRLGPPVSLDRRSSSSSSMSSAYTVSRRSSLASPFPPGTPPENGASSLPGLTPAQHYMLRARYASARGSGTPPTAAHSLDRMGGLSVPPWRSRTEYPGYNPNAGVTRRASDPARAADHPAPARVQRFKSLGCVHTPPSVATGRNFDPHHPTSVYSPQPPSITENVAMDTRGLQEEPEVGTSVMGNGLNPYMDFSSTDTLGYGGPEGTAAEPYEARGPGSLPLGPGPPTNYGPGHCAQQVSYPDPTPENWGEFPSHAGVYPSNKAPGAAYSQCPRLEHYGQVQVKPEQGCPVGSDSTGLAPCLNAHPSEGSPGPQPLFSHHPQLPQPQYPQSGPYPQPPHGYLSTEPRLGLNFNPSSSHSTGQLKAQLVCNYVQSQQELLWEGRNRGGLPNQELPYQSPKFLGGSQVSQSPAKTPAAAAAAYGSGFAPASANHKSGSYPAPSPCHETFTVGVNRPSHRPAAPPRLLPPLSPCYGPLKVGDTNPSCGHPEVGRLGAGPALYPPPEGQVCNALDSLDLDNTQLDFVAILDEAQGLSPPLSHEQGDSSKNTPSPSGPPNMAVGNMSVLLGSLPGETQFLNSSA

[5] = tested on: CWR22R; experiment: Induction of apoptosis in human 22Rv1 cells assessed as caspase3/7 cleavage by luminometric assay; type: functional, cell-based
[6] = tested on: DU146; experiment: Induction of apoptosis in human […] cells assessed as caspase3/7 cleavage by luminometric assay; type: functional, cell-based
[7] = tested on: HEK293; experiment: Inhibition of nuclear accumulation of wild type GLI in HEK293 cells; type: functional, cell-based; conditions: Homo sapiens
[8] = organism: Mus musculus; experiment: Reduction of Ptch1-lacZ level in mouse embryonic fibroblast by luminometric assay; type: functional
[9] = tested on: NIH3T3; experiment: Effect on Hedgehog signaling in mouse NIH3T3 cells assessed as activation of NF kappaB; type: functional, cell-based
[10] = tested on: NIH3T3; experiment: Effect on Hedgehog signaling in mouse NIH3T3 cells assessed as activation of TNF signaling; type: functional, cell-based
[11] = tested on: NIH3T3; experiment: Induction of apoptosis in mouse NIH3T3 cells assessed as caspase3/7 cleavage by luminometric assay; type: functional, cell-based
[12] = Inhibition of Hedgehog signaling in […] Shh-L2 cells; type: functional, cell-based
[13] = Reduction in PTCH expression in human 22Rv cells at 5 uM; type: functional, cell-based
[14] = tested on: PANC-1; experiment: Reduction in GLI1 expression in human PANC1 cells at 5 uM; type: functional, cell-based
[15] = tested on: HEK293; experiment: Inhibition of beta galactosidase in HEK293 cells; type: cell-based; conditions: Homo sapiens
[16] = tested on: MEF; experiment: Reduction in expression of Hedgehog target gene Hip1 in Sufu deficient mouse MEF cells; type: functional, cell-based
[17] = Reduction in expression of Hedgehog target gene Gli1 in Sufu deficient mouse embryonic fibroblast; type: functional
[18] = tested on: HepG2; experiment: Induction of apoptosis in human HepG2 cells assessed as caspase3/7 cleavage by luminometric assay; type: functional, cell-based
[19] = target: T2, Zinc finger protein GLI1 (Homo sapiens) (UniProt P08151); experiment: Alteration in DNA binding to GLI1 in HEK293 cells; type: cell-based
T2 sequence (whole entry): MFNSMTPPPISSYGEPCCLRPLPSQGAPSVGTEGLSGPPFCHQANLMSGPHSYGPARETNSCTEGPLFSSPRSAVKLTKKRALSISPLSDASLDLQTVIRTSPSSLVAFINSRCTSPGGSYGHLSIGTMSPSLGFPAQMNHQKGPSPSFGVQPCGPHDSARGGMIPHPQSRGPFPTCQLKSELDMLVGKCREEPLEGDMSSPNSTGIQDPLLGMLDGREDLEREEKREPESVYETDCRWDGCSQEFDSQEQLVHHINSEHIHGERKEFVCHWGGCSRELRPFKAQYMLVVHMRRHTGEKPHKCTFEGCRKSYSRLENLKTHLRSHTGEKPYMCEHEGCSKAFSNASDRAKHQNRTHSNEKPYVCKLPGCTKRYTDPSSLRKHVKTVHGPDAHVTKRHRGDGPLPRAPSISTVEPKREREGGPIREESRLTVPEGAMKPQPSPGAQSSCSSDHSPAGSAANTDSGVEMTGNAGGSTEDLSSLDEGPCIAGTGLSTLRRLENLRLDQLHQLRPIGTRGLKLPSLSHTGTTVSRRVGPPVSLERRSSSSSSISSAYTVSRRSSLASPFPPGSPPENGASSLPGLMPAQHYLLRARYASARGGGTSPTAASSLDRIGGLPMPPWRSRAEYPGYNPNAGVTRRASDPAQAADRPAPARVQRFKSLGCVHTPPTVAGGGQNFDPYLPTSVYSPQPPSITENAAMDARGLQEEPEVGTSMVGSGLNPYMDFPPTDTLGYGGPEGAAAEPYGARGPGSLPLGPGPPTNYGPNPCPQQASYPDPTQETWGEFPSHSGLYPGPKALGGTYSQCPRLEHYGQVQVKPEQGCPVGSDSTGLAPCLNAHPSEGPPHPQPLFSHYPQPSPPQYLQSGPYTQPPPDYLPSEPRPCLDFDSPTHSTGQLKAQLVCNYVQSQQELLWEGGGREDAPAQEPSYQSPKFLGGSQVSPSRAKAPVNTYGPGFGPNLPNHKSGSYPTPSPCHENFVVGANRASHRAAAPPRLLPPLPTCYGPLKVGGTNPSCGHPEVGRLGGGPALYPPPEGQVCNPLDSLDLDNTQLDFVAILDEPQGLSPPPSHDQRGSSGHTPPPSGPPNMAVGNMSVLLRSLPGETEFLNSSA

[20] = target: T2, Zinc finger protein GLI1 (Homo sapiens); experiment: Inhibition of GLI via PKA activation in HEK293 cells; type: cell-based
[21] = tested on: Jurkat; experiment: Induction of apoptosis in human Jurkat cells assessed as caspase3/7 cleavage by luminometric assay; type: functional, cell-based
[22] = Reduction in GlI1 expression in human 22Rv cells at 5 uM; type: functional, cell-based
[23] = Inhibition of Gli1 dependent growth of human 22Rv cells at 5 uM; type: functional; design: scale not given: the % may be the effect or the level left
[24] = Reduction of expression of PTCH mRNA in human 22Rv cells; type: functional, cell-based
[25] = tested on: Jurkat; experiment: Inhibition of Gli1 dependent growth of human Jurkat cells at 5 uM; type: functional; design: scale not given: the % may be the effect or the level left
[26] = target: Zinc finger protein GLI2 (Homo sapiens) (UniProt P10070); experiment: Reduction of GLI2 mediated transcription in HEK293 cells by luciferase reporter assay; type: cell-based
[27] = tested on: NIH3T3; experiment: Inhibition of Hedgehog/Gli1 mediated transformation in mouse NIH3T3 cells at 10 uM; type: functional, cell-based
[28] = tested on: HEK293; experiment: Inhibition of nuclear accumulation of GLI mutant in HEK293 cells; type: functional, cell-based; conditions: Homo sapiens
[29] = organism: Mus musculus; experiment: Cytotoxicity against wild type mouse embryonic fibroblast at 10 uM after 48 hrs assessed as reduction in cell viability by MTS assay; type: functional
[30] = tested on: NIH3T3; experiment: Effect on Hedgehog signaling in mouse NIH3T3 cells assessed as transactivation of Ras-Raf-Mek-Mapk cascade; type: functional, cell-based
[31] = tested on: NIH3T3; experiment: Effect on Hedgehog signaling in mouse NIH3T3 cells assessed as transactivation of glucocorticoid receptor; type: functional, cell-based
[32] = tested on: Homo sapiens; experiment: Antitumor activity in GLI1 positive human 22Rv cells xenografted mouse model at 50 mg/kg, sc after 18 days; type: functional, organism-based; design: dose 50 mg/kg
[33] = tested on: PANC-1; experiment: Inhibition of Gli1 dependent growth of human PANC1 cells at 5 uM; type: functional; design: scale not given: the % may be the effect or the level left
[34] = tested on: HepG2; experiment: Cytotoxicity against human HepG2 cells at 10 uM after 48 hrs assessed as reduction in cell viability by MTS assay; type: functional, cell-based
[35] = organism: Mus musculus; experiment: Reduction of Gil1 mRNA levels at 10 uM in Ptch deficient mouse embryonic fibroblast; type: functional
[36] = target: T2, Zinc finger protein GLI1 (Homo sapiens); experiment: Reduction of GLI1 mediated transcription in HEK293 cells by luciferase reporter assay; type: cell-based
[37] = tested on: PANC-1; experiment: Reduction in PTCH expression in human PANC1 cells at 5 uM; type: functional, cell-based
[38] = organism: Mus musculus; experiment: Antiproliferative activity against mouse embryonic fibroblast at 10 uM assessed as microarray method; type: functional
[39] = Antiproliferative activity against Ptch deficient mouse embryonic fibroblast at 10 uM by BrdU incorporation; type: functional

Sequence of Zinc finger protein GLI2 (Homo sapiens) (P10070 whole entry): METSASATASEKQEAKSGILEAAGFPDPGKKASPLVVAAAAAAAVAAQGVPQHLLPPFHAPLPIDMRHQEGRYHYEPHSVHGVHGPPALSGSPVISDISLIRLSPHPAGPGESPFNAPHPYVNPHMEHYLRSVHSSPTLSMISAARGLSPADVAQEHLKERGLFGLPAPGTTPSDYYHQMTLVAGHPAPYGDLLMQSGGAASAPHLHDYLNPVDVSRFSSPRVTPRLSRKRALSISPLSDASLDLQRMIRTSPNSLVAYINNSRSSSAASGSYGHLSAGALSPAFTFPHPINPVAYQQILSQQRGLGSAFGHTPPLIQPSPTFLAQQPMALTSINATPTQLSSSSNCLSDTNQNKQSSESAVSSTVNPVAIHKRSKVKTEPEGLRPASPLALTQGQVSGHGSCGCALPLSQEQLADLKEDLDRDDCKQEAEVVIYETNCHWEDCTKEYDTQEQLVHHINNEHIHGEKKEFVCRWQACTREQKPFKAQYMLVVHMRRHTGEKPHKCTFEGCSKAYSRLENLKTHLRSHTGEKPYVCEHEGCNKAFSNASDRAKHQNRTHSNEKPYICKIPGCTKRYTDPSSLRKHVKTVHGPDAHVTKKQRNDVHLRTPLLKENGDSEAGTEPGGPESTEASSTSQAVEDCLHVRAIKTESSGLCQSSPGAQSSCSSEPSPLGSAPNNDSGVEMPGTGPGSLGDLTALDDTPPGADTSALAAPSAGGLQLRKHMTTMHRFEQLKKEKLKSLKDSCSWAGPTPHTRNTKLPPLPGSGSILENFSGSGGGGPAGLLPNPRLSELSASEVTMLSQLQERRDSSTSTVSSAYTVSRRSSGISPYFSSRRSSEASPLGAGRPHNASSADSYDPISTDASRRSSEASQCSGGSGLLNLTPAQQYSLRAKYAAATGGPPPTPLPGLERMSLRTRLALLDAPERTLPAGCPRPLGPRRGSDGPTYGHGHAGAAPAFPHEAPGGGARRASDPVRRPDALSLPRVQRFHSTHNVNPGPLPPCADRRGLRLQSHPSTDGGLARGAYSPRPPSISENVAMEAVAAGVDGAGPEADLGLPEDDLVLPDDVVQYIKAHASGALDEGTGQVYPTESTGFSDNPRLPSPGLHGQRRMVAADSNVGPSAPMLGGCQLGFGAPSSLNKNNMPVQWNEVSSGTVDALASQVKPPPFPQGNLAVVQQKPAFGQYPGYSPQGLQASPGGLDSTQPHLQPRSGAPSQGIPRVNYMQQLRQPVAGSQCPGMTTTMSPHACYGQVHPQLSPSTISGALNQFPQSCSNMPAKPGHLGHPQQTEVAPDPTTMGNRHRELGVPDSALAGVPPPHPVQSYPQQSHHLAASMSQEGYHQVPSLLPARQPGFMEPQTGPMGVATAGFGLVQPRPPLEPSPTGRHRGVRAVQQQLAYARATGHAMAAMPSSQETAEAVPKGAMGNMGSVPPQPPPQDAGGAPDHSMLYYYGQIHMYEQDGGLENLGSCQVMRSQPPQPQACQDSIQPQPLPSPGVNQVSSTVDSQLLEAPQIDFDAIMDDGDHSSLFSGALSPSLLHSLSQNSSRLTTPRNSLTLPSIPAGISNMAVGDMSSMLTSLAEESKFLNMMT

SMILES: CN(C)c1ccccc1CN1CCCN(Cc2ccccc2N(C)C)C1c1ccncc1
- Activity [1]: 0%
- Activity [2]: inactive
- Activity [3]: inactive
- Activity [4]: Active
- Activity [5]: inactive
- Activity [6]: inactive
- Activity [7]: Active
- Activity [8]: Active
- Activity [9]: inactive
- Activity [10]: inactive
- Activity [11]: inactive
- IC50 [12]: 5 µM
- Activity [13]: Active
- Activity [14]: Active
- Activity [15]: Active
- Activity [16]: Active
- Activity [17]: Active
- Activity [18]: inactive
- Activity [19]: inactive
- Activity [20]: inactive
- Activity [21]: inactive
- Activity [22]: Active
- Activity [23]: 40%
- Activity [24]: Active
- Activity [25]: 0%
- Activity [26]: Active
- Activity [27]: Active
- Activity [28]: Active
- Activity [29]: inactive
- Activity [30]: inactive
- Activity [31]: inactive
- Activity [32]: Active
- Activity [33]: 40%
- Activity [34]: inactive
- Activity [35]: Active
- Activity [36]: Active
- Activity [37]: Active
- Activity [38]: Active
- Activity [39]: 40%

SMILES: c1cc(-c2sc(-c3ccncc3)c(-c3ccncc3)c2-c2ccncc2)ccn1
- Activity [1]: 0%
- Activity [2]: inactive
- Activity [4]: Active
- Activity [5]: inactive
- Activity [6]: inactive
- Activity [7]: Active
- Activity [8]: Active
- Activity [9]: inactive
- Activity [10]: inactive
- Activity [11]: inactive
- IC50 [12]: 5 µM
- Activity [13]: Active
- Activity [14]: Active
- Activity [15]: Active
- Activity [16]: Active
- Activity [17]: Active
- Activity [18]: inactive
- Activity [19]: inactive
- Activity [20]: inactive
- Activity [21]: inactive
- Activity [22]: Active
- Activity [23]: 40%
- Activity [24]: Active
- Activity [25]: 0%
- Activity [26]: Active
- Activity [27]: Active
- Activity [28]: Active
- Activity [30]: inactive
- Activity [31]: inactive
- Activity [32]: Active
- Activity [33]: 40%
- Activity [35]: Active
- Activity [36]: Active
- Activity [37]: Active
- Activity [39]: 40%

SMILES: CC1=C2C[C@H]3[C@@H](CC=C4C[C@@H](O)CC[C@@]43C)[C@@H]2CC[C@]12O[C@@H]1C[C@H](C)CN[C@H]1[C@H]2C [CYCLOPAMINE]
- Activity [8]: Active
- Activity [15]: Active
- Activity [16]: inactive
- Activity [17]: inactive
- Activity [24]: Active
- Activity [35]: Active
- Activity [39]: 40%
